Laboratory results: ChEMBL document CHEMBL3045652, “Biorational glycol diesters as dietary toxins versus bioefficacy of sucrose octanoate against lepidopteran larvae” (Ind Crops Prod, 2012)
Values after ≈ are worked out from the molar mass of the structure shown.

Experiments:
Spodoptera litura [1] = assay: Antifeedant activity against third-instar larval stage of Spodoptera litura fed with artificial diet containing compound assessed as relative consumption rate at 5.9 mg/ml after 3 days (reference value: 2.13 +/- 0.18 mg/mg/day); type: functional
Spodoptera litura [2] = assay: Insecticidal activity against second-instar larval stage of Spodoptera litura fed with artificial diet containing compound assessed as growth inhibition after 7 days; type: functional, organism-based; details: for EC50: 168 h
Spodoptera litura [3] = assay: Antifeedant activity against third-instar larval stage of Spodoptera litura fed with artificial diet containing compound assessed as efficiency index of ingested food at 5.9 mg/ml after 3 days (reference value: 64.5%); type: functional
Spodoptera litura [4] = assay: Antifeedant activity against third-instar larval stage of Spodoptera litura fed with artificial diet containing compound assessed as relative growth rate at 5.9 mg/ml after 3 days (reference value: 1.37 +/- 0.12 mg/mg/day); type: functional
Helicoverpa armigera [5] = assay: Insecticidal activity against second-instar larval stage of Helicoverpa armigera fed with artificial diet containing compound assessed as mortality after 7 days; type: functional; details: 168 h
Helicoverpa armigera [6] = assay: Antifeedant activity against third-instar larval stage of Helicoverpa armigera fed with artificial diet containing compound assessed as efficiency index of ingested food at 8.21 mg/ml after 3 days (reference value: 52%); type: functional
Helicoverpa armigera [7] = assay: Antifeedant activity against third-instar larval stage of Helicoverpa armigera fed with artificial diet containing compound assessed as relative consumption rate at 8.21 mg/ml after 3 days (reference value: 1.88 +/- 0.14 mg/mg/day); type: functional
Helicoverpa armigera [8] = assay: Antifeedant activity against third-instar larval stage of Helicoverpa armigera fed with artificial diet containing compound assessed as relative growth rate at 8.21 mg/ml after 3 days (reference value: 0.97 +/- 0.13 mg/mg/day); type: functional
Helicoverpa armigera [9] = assay: Insecticidal activity against second-instar larval stage of Helicoverpa armigera fed with artificial diet containing compound assessed as growth inhibition after 7 days; type: functional, organism-based; details: for EC50: 168 h
Spodoptera litura [10] = assay: Insecticidal activity against second-instar larval stage of Spodoptera litura fed with artificial diet containing compound assessed as mortality after 7 days; type: functional; details: 168 h
Spodoptera litura [11] = assay: Antifeedant activity against third-instar larval stage of Spodoptera litura fed with artificial diet containing compound assessed as efficiency index of ingested food at 5.6 mg/ml after 3 days (reference value: 64.5%); type: functional
Spodoptera litura [12] = assay: Antifeedant activity against third-instar larval stage of Spodoptera litura fed with artificial diet containing compound assessed as relative growth rate at 5.6 mg/ml after 3 days (reference value: 1.37 +/- 0.12 mg/mg/day); type: functional
Helicoverpa armigera [13] = assay: Antifeedant activity against third-instar larval stage of Helicoverpa armigera fed with artificial diet containing compound assessed as efficiency index of ingested food at 7.38 mg/ml after 3 days (reference value: 52%); type: functional
Spodoptera litura [14] = assay: Antifeedant activity against third-instar larval stage of Spodoptera litura fed with artificial diet containing compound assessed as relative consumption rate at 5.6 mg/ml after 3 days (reference value: 2.13 +/- 0.18 mg/mg/day); type: functional
Helicoverpa armigera [15] = assay: Antifeedant activity against third-instar larval stage of Helicoverpa armigera fed with artificial diet containing compound assessed as relative growth rate at 7.38 mg/ml after 3 days (reference value: 0.97 +/- 0.13 mg/mg/day); type: functional
Helicoverpa armigera [16] = assay: Antifeedant activity against third-instar larval stage of Helicoverpa armigera fed with artificial diet containing compound assessed as relative consumption rate at 7.38 mg/ml after 3 days (reference value: 1.88 +/- 0.14 mg/mg/day); type: functional
Helicoverpa armigera [17] = assay: Antifeedant activity against third-instar larval stage of Helicoverpa armigera fed with artificial diet containing compound assessed as relative growth rate at 7.15 mg/ml after 3 days (reference value: 0.97 +/- 0.13 mg/mg/day); type: functional
Helicoverpa armigera [18] = assay: Antifeedant activity against third-instar larval stage of Helicoverpa armigera fed with artificial diet containing compound assessed as relative consumption rate at 7.15 mg/ml after 3 days (reference value: 1.88 +/- 0.14 mg/mg/day); type: functional
Helicoverpa armigera [19] = assay: Antifeedant activity against third-instar larval stage of Helicoverpa armigera fed with artificial diet containing compound assessed as efficiency index of ingested food at 7.15 mg/ml after 3 days (reference value: 52%); type: functional
Spodoptera litura [20] = assay: Antifeedant activity against third-instar larval stage of Spodoptera litura fed with artificial diet containing compound assessed as relative growth rate at 6.25 mg/ml after 3 days (reference value: 1.37 +/- 0.12 mg/mg/day); type: functional
Spodoptera litura [21] = assay: Antifeedant activity against third-instar larval stage of Spodoptera litura fed with artificial diet containing compound assessed as efficiency index of ingested food at 6.25 mg/ml after 3 days (reference value: 64.5%); type: functional
Spodoptera litura [22] = assay: Antifeedant activity against third-instar larval stage of Spodoptera litura fed with artificial diet containing compound assessed as relative consumption rate at 6.25 mg/ml after 3 days (reference value: 2.13 +/- 0.18 mg/mg/day); type: functional

## CCCC(=O)OCC(C)OC(=O)CCC (configuration not stated)
Spodoptera litura [1]
  Activity: 1.98 mg/mg/day
Spodoptera litura [2]
  growth inhibition (GI): Dose-dependent effect
  EC50: 4210 µg/mL (≈ 19.5 mM)
Spodoptera litura [3]
  ECI: 12%
Spodoptera litura [4]
  Activity: 1.04 mg/mg/day
Helicoverpa armigera [5]
  LC50: 2000 µg/mL (≈ 9.25 mM)
Helicoverpa armigera [6]
  ECI: 38.2%
Helicoverpa armigera [7]
  Activity: 1.77 mg/mg/day
Helicoverpa armigera [8]
  Activity: 0.67 mg/mg/day
Helicoverpa armigera [9]
  growth inhibition (GI): Dose-dependent effect
  EC50: 5670 µg/mL (≈ 26.2 mM)
Spodoptera litura [10]
  LC50: 2000 µg/mL (≈ 9.25 mM)

## CC(COC(=O)C(C)C)OC(=O)C(C)C (configuration not stated)
Spodoptera litura [11]
  ECI: 13%
Spodoptera litura [12]
  Activity: 1.09 mg/mg/day
Spodoptera litura [2]
  growth inhibition (GI): Dose-dependent effect
  EC50: 5210 µg/mL (≈ 24.1 mM)
Helicoverpa armigera [13]
  ECI: 30.4%
Spodoptera litura [14]
  Activity: 2.12 mg/mg/day
Helicoverpa armigera [15]
  Activity: 0.58 mg/mg/day
Helicoverpa armigera [5]
  LC50: 2000 µg/mL (≈ 9.25 mM)
Helicoverpa armigera [16]
  Activity: 1.91 mg/mg/day
Helicoverpa armigera [9]
  growth inhibition (GI): Dose-dependent effect
  EC50: 7340 µg/mL (≈ 33.9 mM)
Spodoptera litura [10]
  LC50: 2000 µg/mL (≈ 9.25 mM)

## CCCCCCCC(=O)OCC(C)OC(=O)CCCCCCC (configuration not stated)
Helicoverpa armigera [17]
  Activity: 0.7 mg/mg/day
Spodoptera litura [2]
  growth inhibition (GI): Dose-dependent effect
  EC50: 3820 µg/mL (≈ 11.6 mM)
Helicoverpa armigera [5]
  LC50: 2000 µg/mL (≈ 6.09 mM)
Helicoverpa armigera [18]
  Activity: 1.86 mg/mg/day
Helicoverpa armigera [19]
  ECI: 37.9%
Spodoptera litura [20]
  Activity: 0.88 mg/mg/day
Helicoverpa armigera [9]
  growth inhibition (GI): Dose-dependent effect
  EC50: 4380 µg/mL (≈ 13.3 mM)
Spodoptera litura [21]
  ECI: 18%
Spodoptera litura [22]
  Activity: 2.21 mg/mg/day
Spodoptera litura [10]
  LC50: 2000 µg/mL (≈ 6.09 mM)

## CCCCCCCC(=O)OCCOCCOC(=O)CCCCCCC [DIETHYLENE GLYCOL DIOCTANOATE]
Spodoptera litura [2]
  growth inhibition (GI): Dose-dependent effect
  EC50: 1540 µg/mL (≈ 4.3 mM)
Helicoverpa armigera [9]
  growth inhibition (GI): Dose-dependent effect
  EC50: 2880 µg/mL (≈ 8.03 mM)

## CCCCC(=O)OCCOCCOC(=O)CCCC [DIETHYLENE GLYCOL DIPENTANOATE]
Spodoptera litura [2]
  growth inhibition (GI): Dose-dependent effect
  EC50: 1880 µg/mL (≈ 6.85 mM)
Helicoverpa armigera [9]
  growth inhibition (GI): Dose-dependent effect
  EC50: 3870 µg/mL (≈ 14.1 mM)

## CCCCCC(=O)OCCOC(=O)CCCCC [ETHYLENE GLYCOL DIHEXANOATE]
Spodoptera litura [2]
  growth inhibition (GI): Dose-dependent effect
  EC50: 1780 µg/mL (≈ 6.89 mM)
Helicoverpa armigera [9]
  growth inhibition (GI): Dose-dependent effect
  EC50: 2160 µg/mL (≈ 8.36 mM)

## CC(C)C(=O)OCCOC(=O)C(C)C [ETHYLENE GLYCOL DIISOBUTANOATE]
Spodoptera litura [2]
  growth inhibition (GI): Dose-dependent effect
  EC50: 5000 µg/mL (≈ 24.7 mM)
Helicoverpa armigera [9]
  growth inhibition (GI): Dose-dependent effect
  EC50: 5880 µg/mL (≈ 29.1 mM)
